# In PubChem BioAssay AID1259407 (Chemical Carcinogenesis Research Information System (CCRIS), 2018):
# Active and inactive are the calls of the source. No rule for the calls is given here.
# Test system: CCRIS mutagenicity, Ames/micronucleus/aberration tests
# Assay: CCRIS mutagenicity studies
# [1] = Test System: AMES SALMONELLA TYPHIMURIUM, Strain/Indicator: TA97, Metabolic Activation: NONE, Method: PREINCUBATION
# [2] = Test System: AMES SALMONELLA TYPHIMURIUM, Strain/Indicator: TA100, Metabolic Activation: NONE, Method: PREINCUBATION
# [3] = Test System: AMES SALMONELLA TYPHIMURIUM, Strain/Indicator: TA1535, Metabolic Activation: NONE, Method: PREINCUBATION
# [4] = Test System: AMES SALMONELLA TYPHIMURIUM, Strain/Indicator: TA98, Metabolic Activation: NONE, Method: STANDARD PLATE
# [5] = Test System: AMES SALMONELLA TYPHIMURIUM, Strain/Indicator: TA98, Metabolic Activation: RAT, LIVER, S-9, AROCLOR 1254, Method: STANDARD PLATE
# [6] = Test System: AMES SALMONELLA TYPHIMURIUM, Strain/Indicator: TA100, Metabolic Activation: NONE, Method: STANDARD PLATE
# [7] = Test System: AMES SALMONELLA TYPHIMURIUM, Strain/Indicator: TA100, Metabolic Activation: RAT, LIVER, S-9, AROCLOR 1254, Method: STANDARD PLATE
smiles,measurement,setting,value
CNC(=O)c1ccccc1,mutagenic call,"Test System: AMES SALMONELLA TYPHIMURIUM, Strain/Indicator: TA97, Metabolic Activation: HAMSTER, LIVER, S-9, AROCLOR 1254 (10 OR 30%), Method: PREINCUBATION",inactive; negative
same,mutagenic call,[1],inactive; negative
same,mutagenic call,"Test System: AMES SALMONELLA TYPHIMURIUM, Strain/Indicator: TA97, Metabolic Activation: RAT, LIVER, S-9, AROCLOR 1254 (10 OR 30%), Method: PREINCUBATION",inactive; negative
same,mutagenic call,"Test System: AMES SALMONELLA TYPHIMURIUM, Strain/Indicator: TA98, Metabolic Activation: HAMSTER, LIVER, S-9, AROCLOR 1254 (10 OR 30%), Method: PREINCUBATION",inactive; negative
same,mutagenic call,"Test System: AMES SALMONELLA TYPHIMURIUM, Strain/Indicator: TA98, Metabolic Activation: NONE, Method: PREINCUBATION",inactive; negative
same,mutagenic call,"Test System: AMES SALMONELLA TYPHIMURIUM, Strain/Indicator: TA98, Metabolic Activation: RAT, LIVER, S-9, AROCLOR 1254 (10 OR 30%), Method: PREINCUBATION",inactive; negative
same,mutagenic call,"Test System: AMES SALMONELLA TYPHIMURIUM, Strain/Indicator: TA100, Metabolic Activation: HAMSTER, LIVER, S-9, AROCLOR 1254 (10 OR 30%), Method: PREINCUBATION",inactive; negative
same,mutagenic call,[2],inactive; negative
same,mutagenic call,"Test System: AMES SALMONELLA TYPHIMURIUM, Strain/Indicator: TA100, Metabolic Activation: RAT, LIVER, S-9, AROCLOR 1254 (10 OR 30%), Method: PREINCUBATION",inactive; negative
same,mutagenic call,"Test System: AMES SALMONELLA TYPHIMURIUM, Strain/Indicator: TA1535, Metabolic Activation: HAMSTER, LIVER, S-9, AROCLOR 1254 (10 OR 30%), Method: PREINCUBATION",inactive; negative
same,mutagenic call,[3],inactive; negative
same,mutagenic call,"Test System: AMES SALMONELLA TYPHIMURIUM, Strain/Indicator: TA1535, Metabolic Activation: RAT, LIVER, S-9, AROCLOR 1254 (10 OR 30%), Method: PREINCUBATION",inactive; negative
C1=Cc2ccc3nc4ccc5ccccc5c4cc3c2CC1,mutagenic call,"Test System: AMES SALMONELLA TYPHIMURIUM, Strain/Indicator: TA98, Metabolic Activation: GUINEA PIG, LIVER, S-9, 3-METHYLCHOLANTHRENE, Method: STANDARD PLATE",active; positive
same,mutagenic call,"Test System: AMES SALMONELLA TYPHIMURIUM, Strain/Indicator: TA100, Metabolic Activation: GUINEA PIG, LIVER, S-9, 3-METHYLCHOLANTHRENE, Method: STANDARD PLATE",active; positive
COc1cc(N)ccc1NC(C)=O,mutagenic call,[4],inactive; negative
same,mutagenic call,[5],active; positive
CCC(CCC(C)=O)COC(=O)CCCCC(=O)O (configuration not stated),mutagenic call,"Test System: AMES SALMONELLA TYPHIMURIUM, Strain/Indicator: TA97, Metabolic Activation: NONE, Method: STANDARD PLATE",inactive; negative
same,mutagenic call,"Test System: AMES SALMONELLA TYPHIMURIUM, Strain/Indicator: TA97, Metabolic Activation: RAT, LIVER, S-9, AROCLOR 1254, Method: STANDARD PLATE",inactive; negative
same,mutagenic call,"Test System: AMES SALMONELLA TYPHIMURIUM, Strain/Indicator: TA97, Metabolic Activation: RAT, LIVER, S-9, DI(2-ETHYLHEXYL)PHTHALATE, Method: STANDARD PLATE",inactive; negative
same,mutagenic call,[4],inactive; negative
same,mutagenic call,[5],inactive; negative
same,mutagenic call,"Test System: AMES SALMONELLA TYPHIMURIUM, Strain/Indicator: TA98, Metabolic Activation: RAT, LIVER, S-9, DI(2-ETHYLHEXYL)PHTHALATE, Method: STANDARD PLATE",inactive; negative
same,mutagenic call,[6],inactive; negative
same,mutagenic call,[7],inactive; negative
same,mutagenic call,"Test System: AMES SALMONELLA TYPHIMURIUM, Strain/Indicator: TA100, Metabolic Activation: RAT, LIVER, S-9, DI(2-ETHYLHEXYL)PHTHALATE, Method: STANDARD PLATE",inactive; negative
same,mutagenic call,"Test System: AMES SALMONELLA TYPHIMURIUM, Strain/Indicator: TA102, Metabolic Activation: NONE, Method: STANDARD PLATE",inactive; negative
same,mutagenic call,"Test System: AMES SALMONELLA TYPHIMURIUM, Strain/Indicator: TA102, Metabolic Activation: RAT, LIVER, S-9, AROCLOR 1254, Method: STANDARD PLATE",inactive; negative
same,mutagenic call,"Test System: AMES SALMONELLA TYPHIMURIUM, Strain/Indicator: TA102, Metabolic Activation: RAT, LIVER, S-9, DI(2-ETHYLHEXYL)PHTHALATE, Method: STANDARD PLATE",inactive; negative
C[C@]12CC[C@@H]3c4ccc(O)cc4CC[C@H]3[C@@H]1C[C@@H](O)C2=O,mutagenic call,"Test System: Ames Salmonella typhimurium, Strain/Indicator: TA98, Metabolic Activation: None, Method: Standard plate",inactive; negative
same,mutagenic call,"Test System: Ames Salmonella typhimurium, Strain/Indicator: TA98, Metabolic Activation: Rat, liver, S-9, Method: Standard plate",inactive; negative
same,mutagenic call,"Test System: Ames Salmonella typhimurium, Strain/Indicator: TA100, Metabolic Activation: None, Method: Standard plate",inactive; negative
same,mutagenic call,"Test System: Ames Salmonella typhimurium, Strain/Indicator: TA100, Metabolic Activation: Rat, liver, S-9, Method: Standard plate",inactive; negative
CC(=O)OCc1cocc2c(C=O)ccc1-2,mutagenic call,[4],active; positive
same,mutagenic call,[5],active; positive
same,mutagenic call,[6],active; positive
same,mutagenic call,[7],active; positive
same,mutagenic call,"Test System: AMES SALMONELLA TYPHIMURIUM, Strain/Indicator: TA1535, Metabolic Activation: NONE, Method: STANDARD PLATE",inactive; negative
same,mutagenic call,"Test System: AMES SALMONELLA TYPHIMURIUM, Strain/Indicator: TA1535, Metabolic Activation: RAT, LIVER, S-9, AROCLOR 1254, Method: STANDARD PLATE",inactive; negative
same,mutagenic call,"Test System: AMES SALMONELLA TYPHIMURIUM, Strain/Indicator: TA1537, Metabolic Activation: NONE, Method: STANDARD PLATE",inactive; negative
same,mutagenic call,"Test System: AMES SALMONELLA TYPHIMURIUM, Strain/Indicator: TA1537, Metabolic Activation: RAT, LIVER, S-9, AROCLOR 1254, Method: STANDARD PLATE",inactive; negative
O=C1C=Cc2ccccc2C1=O,mutagenic call,[1],active; positive
same,mutagenic call,"Test System: AMES SALMONELLA TYPHIMURIUM, Strain/Indicator: TA97, Metabolic Activation: RAT, LIVER, S-9, PHENOBARBITAL AND 5,6-BENZOFLAVONE, Method: PREINCUBATION",inactive; negative
same,mutagenic call,"Test System: AMES SALMONELLA TYPHIMURIUM, Strain/Indicator: TA97A, Metabolic Activation: NONE, Method: PREINCUBATION",active; positive
same,mutagenic call,"Test System: AMES SALMONELLA TYPHIMURIUM, Strain/Indicator: TA98, Metabolic Activation: RAT, LIVER, S-9, PHENOBARBITAL AND 5,6-BENZOFLAVONE, Method: PREINCUBATION",inactive; negative
same,mutagenic call,[2],active; positive
same,mutagenic call,"Test System: AMES SALMONELLA TYPHIMURIUM, Strain/Indicator: TA100, Metabolic Activation: RAT, LIVER, S-9, PHENOBARBITAL AND 5,6-BENZOFLAVONE, Method: PREINCUBATION",active; positive
same,mutagenic call,"Test System: AMES SALMONELLA TYPHIMURIUM, Strain/Indicator: TA102, Metabolic Activation: RAT, LIVER, S-9, PHENOBARBITAL AND 5,6-BENZOFLAVONE, Method: PREINCUBATION",inactive; negative
same,mutagenic call,"Test System: AMES SALMONELLA TYPHIMURIUM, Strain/Indicator: TA104, Metabolic Activation: NONE, Method: PREINCUBATION",active; positive
same,mutagenic call,"Test System: AMES SALMONELLA TYPHIMURIUM, Strain/Indicator: TA104, Metabolic Activation: RAT, LIVER, S-9, PHENOBARBITAL AND 5,6-BENZOFLAVONE, Method: PREINCUBATION",active; positive
same,mutagenic call,[3],inactive; negative
same,mutagenic call,"Test System: AMES SALMONELLA TYPHIMURIUM, Strain/Indicator: TA1535, Metabolic Activation: RAT, LIVER, S-9, PHENOBARBITAL AND 5,6-BENZOFLAVONE, Method: PREINCUBATION",inactive; negative
same,mutagenic call,"Test System: AMES SALMONELLA TYPHIMURIUM, Strain/Indicator: TA1537, Metabolic Activation: NONE, Method: PREINCUBATION",inactive; negative
same,mutagenic call,"Test System: AMES SALMONELLA TYPHIMURIUM, Strain/Indicator: TA1537, Metabolic Activation: RAT, LIVER, S-9, PHENOBARBITAL AND 5,6-BENZOFLAVONE, Method: PREINCUBATION",inactive; negative
same,mutagenic call,"Test System: AMES SALMONELLA TYPHIMURIUM, Strain/Indicator: TA1538, Metabolic Activation: NONE, Method: PREINCUBATION",inactive; negative
same,mutagenic call,"Test System: AMES SALMONELLA TYPHIMURIUM, Strain/Indicator: TA1538, Metabolic Activation: RAT, LIVER, S-9, PHENOBARBITAL AND 5,6-BENZOFLAVONE, Method: PREINCUBATION",inactive; negative
same,mutagenic call,"Test System: AMES SALMONELLA TYPHIMURIUM, Strain/Indicator: TA2637, Metabolic Activation: NONE, Method: PREINCUBATION",active; positive
same,mutagenic call,"Test System: AMES SALMONELLA TYPHIMURIUM, Strain/Indicator: TA2637, Metabolic Activation: RAT, LIVER, S-9, PHENOBARBITAL AND 5,6-BENZOFLAVONE, Method: PREINCUBATION",inactive; negative
